# Laboratory results: patent US20100210667A1, “IMIDAZO [1, 2-C] PYRIMIDIN-2-YLMETHYLPIPERIDINES AS OREXIN RECEPTOR ANTAGONISTS” (priority 2007, published 2010)
# Ends that are not written are not given here.
# Biological target: T1, human cloned orexin-1 receptor (alanine at position 280) (Homo sapiens, UniProt O43613)
# T1 construct: expressed in transfected cells
# T1 sequence (O43613 1-425): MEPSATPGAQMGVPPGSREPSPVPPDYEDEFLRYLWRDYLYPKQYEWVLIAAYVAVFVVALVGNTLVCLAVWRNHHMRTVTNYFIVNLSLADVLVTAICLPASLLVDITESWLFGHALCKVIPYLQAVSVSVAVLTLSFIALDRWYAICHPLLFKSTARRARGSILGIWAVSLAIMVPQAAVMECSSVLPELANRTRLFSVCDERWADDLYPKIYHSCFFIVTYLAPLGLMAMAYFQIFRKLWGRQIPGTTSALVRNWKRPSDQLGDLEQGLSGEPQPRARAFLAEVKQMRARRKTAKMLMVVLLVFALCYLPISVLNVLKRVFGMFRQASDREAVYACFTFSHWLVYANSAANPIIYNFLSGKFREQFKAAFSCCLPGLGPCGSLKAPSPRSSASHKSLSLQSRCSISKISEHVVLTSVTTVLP
# Experiment: Antagonist affinity at human orexin-1 receptor using FLIPR ([Ca2+]i, CHO cells)
# Format: cell-based
# Conditions: hOrexin A at EC80, IC50 converted to functional pKi by modified Cheng-Prusoff, read-out: fpKi at the human cloned orexin-1 receptor
# From the text: Determination of ANTAGONIST AFFINITY at Human Orexin-1 and 2 Receptors Using FLIPR
# Adherent Chinese Hamster Ovary (CHO) cells, stably expressing the recombinant human Orexin-1 or human Orexin-2 receptors or Rat Basophilic Leukaemia Cells (RBL) stably expressing recombinant rat Orexin-1 or rat Orexin-2 receptors were maintained in culture in Alpha Minimum Essential Medium (Gibco/Invitrogen, cat. no.; 22571-020), supplemented with 10% decomplemented foetal bovine serum (Life Technologies, cat. no. 10106-078) and 400 μg/mL Geneticin G418 (Calbiochem, cat. no.345810). Cells were grown as monolayers under 95%:5% air:CO2 at 37° C.
# The sequences of the human orexin 1, human orexin 2, rat orexin 1 and rat orexin 2 receptors used in this example were as published in Sakurai, T. et al (1998) Cell, 92 pp 573 to 585, with the exception that the human orexin 1 receptor sequence used had the amino acid residue alanine at position 280 and not glycine as reported in Sakurai et al.
# Cells were seeded into black clear-bottom 384-well plates (density of 20,000 cells per well) in culture medium as described above and maintained overnight (95%:5% air:CO2 at 37° C.). On the day of the experiment, culture medium were discarded and the cells washed three times with standard buffer (NaCl, 145 mM; KCl, 5 mM; HEPES, 20 mM; Glucose, 5.5 mM; MgCl2, 1 mM; CaCl2, 2 mM) added with Probenecid 2.5 mM. The plates were then incubated at 37° C. for 60 minutes in the dark with 1 μM FLUO-4AM dye to allow cell uptake of the FLUO-4AM, which is subsequently converted by intracellular esterases to FLUO-4, which is unable to leave the cells. After incubation, cells were washed three times with standard buffer to remove extracellular dye and 30 μL of buffer were left in each well after washing.
# Compounds of the invention were tested in a final assay concentration range from 1.66×10^−5M to 1.58×10^−11M. Compounds of the invention were dissolved in dimethylsulfoxide (DMSO) at a stock concentration of 10 mM. These stock solutions were serially diluted with DMSO and 1 μL of each dilution was transferred to a 384 well compound plate. Immediately before introducing compound to the cells, buffer solution (50 μl/well) was added to this plate. To allow agonist stimulation of the cells, a stock plate containing a solution of human orexin A (hOrexin A) was diluted with buffer to final concentration just before use. This final concentration of hOrexin A was equivalent to the calculated EC80 for hOrexinA agonist potency in this test system. This value was obtained by testing hOrexinA in concentration response curve (at least 16 replicates) the same day of the experiment.
# The loaded cells were then incubated for 10min at 37° C. with test compound. The plates were then placed into a FLIPRTM (Molecular Devices, UK) to monitor cell fluorescence (λex=488 nm, λEM=540 nm) (Sullivan E, Tucker E M, Dale I L. Measurement of [Ca^2+]i, using the fluometric imaging plate reader (FLIPR). In: Lambert D G (ed.), Calcium Signaling Protocols. New Jersey: Humana Press, 1999, 125-136). A baseline fluorescence reading was taken over a 5 to 10 second period, and then 10 μL of EC80 hOrexinA solution was added. The fluorescence was then read over a 4-5 minute period.
# Functional responses using FLIPR were measured as peak fluorescence intensity minus basal fluorescence and expressed as a percentage of a non-inhibited Orexin-A-induced response on the same plate. […]
row,Compound,Ki
1,"Cc1nc(C(=O)N2CCCC[C@H]2Cc2cn3cnc(Cl)c(C)c3n2)c(-c2ccccc2)s1 [Example 1, 7-chloro-8-methyl-2-({2S)-1-[(2-methyl-5-phenyl-1,3-thiazol-4-ylcarbonyl]-2-piperidinyl}methyl)imidazo[1,2-c]pyrimidine]",0.631 to 3.98 nM
2,Cc1nc(C(=O)N2CCCC[C@H]2Cc2cn3cncc(C)c3n2)c(-c2ccccc2)s1 [Example 2],0.631 to 3.98 nM
3,"COc1ncn2cc(C[C@@H]3CCCCN3C(=O)c3nc(C)sc3-c3ccccc3)nc2c1C [Example 3, 8-methyl-7-(methyloxy)-2-({(2-S)-1-[(2-methyl-5-phenyl-1,3-thiazol-4-yl)carbonyl]-2-piperidinyl}methyl)imidazo[1,2-c]pyrimidine]",0.631 to 3.98 nM
4,"Cc1nc(C(=O)N2CCCC[C@H]2Cc2cn3cnc(C)c(Cl)c3n2)c(-c2ccccc2)s1 [Example 4, 8-chloro-7-methyl-2-({(2S)-1-[(2-methyl-5-phenyl-1,3-thiazol-4-yl)carbonyl]-2-piperidinyl}methyl)imidazo[1,2-c]pyrimidine]",0.631 to 3.98 nM
5,"Cc1nc(C(=O)N2CCCC[C@H]2Cc2cn3cnc(C)c(C)c3n2)c(-c2ccccc2)s1 [Example 5, 7,8-dimethyl-2-({(2S)-1-[(2-methyl-5-phenyl-1,3-thiazol-4-yl)carbonyl]-2-piperidinyl}methyl)imidazo[1,2-c]pyrimidine]",0.631 to 3.98 nM

# Tested on: food intake
# Experiment: not given
# Conditions: central administration, freely-feeding rats, 4 hour time period; cited from earlier work
row,Compound,increase of food intake over control rats receiving vehicle
1,"orexin-A: polypeptide ligand for the orexin-1 receptor, an agonist of the orexin receptors (QPLPDCCRQKTCSCRLYELLHGAGNHAAGILTL; ends and bridges not checked; cysteine pairing not given here; UniProt O43612 34-66, looked up)",approximately four-fold
